Experimental findings from ChEMBL document CHEMBL6134887, “Linker and Head-Group Exploration of Anti-MRSA Triaromatic Pleuromutilins” (J Med Chem, 2025) are described below.

Usually half-life stands for how long it takes for the measured level to halve.

Data set [1] can be described thus: Metabolic stability in mouse liver microsomes assessed as half-life at 1 uM measured up to 60 mins by LC-MS/MS analysis. The format is ADME, Microsome.
Data set [2] in a line: Metabolic stability in mouse liver assessed as intrinsic clearance at 1 uM measured up to 60 mins by LC-MS/MS analysis. The data set is classed as ADME, tissue-based. The settings on record: read-out: CLH.
Data set [3] can be described thus: Metabolic stability in human liver microsomes assessed as half-life at 1 uM measured up to 30 mins by LC-MS/MS analysis. The format is ADME, Microsome.
The test system of data set [4] is Staphylococcus aureus. In words: Antibacterial activity against methicillin resistant Staphylococcus aureus USA300 FPR3757 assessed as inhibition of bacterial growth incubated for 20 to 24 hrs by microbroth serial dilution method. The data set is classed as functional. Particulars: time 20-24 hrs, read-out: MIC100.
Data set [5] can be described thus: Metabolic stability in human liver assessed as intrinsic clearance at 1 uM measured up to 30 mins by LC-MS/MS analysis. Particulars: read-out: CLH. The format is ADME, tissue-based.

Converted amounts (≈) assume the structure as drawn.

As to `C=C[C@]1(C)C[C@@H](OC(=O)Cn2cc(-c3ccc(Nc4ncnc5[nH]cnc45)cc3)nn2)[C@]2(C)[C@H](C)CC[C@]3(CCC(=O)[C@H]32)[C@@H](C)[C@@H]1O`, the half-life at 1 µM in data set [1] amounted to 1.76 min; in data set [3] it was 23.4 min. The CLint scaled at 1 µM came out at 187 L/h/kg in data set [2] and 17.8 L/h/kg in data set [5]. Further, the MIC in data set [4] is 0.12 mg/L (≈ 0.188 µM).
In the case of `C=C[C@]1(C)C[C@@H](OC(=O)Cn2cc(-c3cncc(C(=O)Nc4ccc(OC)cc4)c3)nn2)[C@]2(C)[C@H](C)CC[C@]3(CCC(=O)[C@H]32)[C@@H](C)[C@@H]1O`, in data set [4], the MIC turned out to be 0.12 mg/L (≈ 0.183 µM).
The same measure, in the same setting: the value for `C=C[C@]1(C)C[C@@H](OC(=O)Cn2cc(-c3ccc(Cn4ccc5c(N)ncnc54)c(O)c3)nn2)[C@]2(C)[C@H](C)CC[C@]3(CCC(=O)[C@H]32)[C@@H](C)[C@@H]1O` was 0.06 mg/L (≈ 0.0898 µM).
With `C=C[C@]1(C)C[C@@H](OC(=O)Cn2cc(-c3cccc(C(=O)Nc4ccccc4)c3)nn2)[C@]2(C)[C@H](C)CC[C@]3(CCC(=O)[C@H]32)[C@@H](C)[C@@H]1O`, the MIC in data set [4] came out at 0.25 mg/L (≈ 0.4 µM).
On the same count and under the same terms, the value for `C=C[C@]1(C)C[C@@H](OC(=O)Cn2cc(-c3ccc(Cn4ccc(N)nc4=O)nc3)nn2)[C@]2(C)[C@H](C)CC[C@]3(CCC(=O)[C@H]32)[C@@H](C)[C@@H]1O` was 8 mg/L (≈ 12.7 µM).
`O=C(O)Cc1ccccc1Nc1c(Cl)cccc1Cl` [DICLOFENAC]: the half-life at 1 µM in data set [1] is 20.2 min. For the same molecule, the CLint scaled at 1 µM in data set [2] turned out to be 16.3 L/h/kg.
The like results for `C=C[C@]1(C)C[C@@H](OC(=O)Cn2cc(-c3ccc(Cn4cnc5c(N)ncnc54)c(O)c3)nn2)[C@]2(C)[C@H](C)CC[C@]3(CCC(=O)[C@H]32)[C@@H](C)[C@@H]1O` were, in that order, 0.56 min and 586 L/h/kg.
Turning to `C=C[C@]1(C)C[C@@H](OC(=O)Cn2cc(-c3ccc(NC(=O)c4ccccc4)cc3)nn2)[C@]2(C)[C@H](C)CC[C@]3(CCC(=O)[C@H]32)[C@@H](C)[C@@H]1O`, the MIC in data set [4] was determined as 4 mg/L (≈ 6.4 µM).
Same read-out and setting: the value for `C=C[C@]1(C)C[C@@H](OC(=O)Cn2cc(-c3cccc(Oc4nc(N)nc5[nH]cnc45)c3)nn2)[C@]2(C)[C@H](C)CC[C@]3(CCC(=O)[C@H]32)[C@@H](C)[C@@H]1O` was 0.12 mg/L (≈ 0.183 µM).
Still for that read-out and setting: the value for `C=C[C@]1(C)C[C@@H](OC(=O)Cn2cc(-c3ccc(Cn4cncc4CO)nc3)nn2)[C@]2(C)[C@H](C)CC[C@]3(CCC(=O)[C@H]32)[C@@H](C)[C@@H]1O` was 2 mg/L (≈ 3.24 µM).
`C=C[C@]1(C)C[C@@H](OC(=O)Cn2cc(-c3cncc(NC(=O)c4ccc(OC)nc4)c3)nn2)[C@]2(C)[C@H](C)CC[C@]3(CCC(=O)[C@H]32)[C@@H](C)[C@@H]1O`: the figures for the half-life at 1 µM in data set [1] and in data set [3] were 0.57 min and 2.4 min, respectively. In addition, the CLint scaled at 1 µM is 574 L/h/kg in data set [2] and 154 L/h/kg in data set [5]. Besides, the MIC in data set [4] was found to be 0.12 mg/L (≈ 0.183 µM).
In the case of `C=C[C@]1(C)C[C@@H](OC(=O)Cn2cc(-c3ccc(Cn4ccc5c(N)ncnc54)cc3)nn2)[C@]2(C)[C@H](C)CC[C@]3(CCC(=O)[C@H]32)[C@@H](C)[C@@H]1O`, the MIC in data set [4] was 0.06 mg/L (≈ 0.0921 µM).
Same read-out and setting: the value for `C=C[C@]1(C)C[C@@H](OC(=O)Cn2cc(-c3cccc(NC(=O)c4ccc(OC)nc4)c3)nn2)[C@]2(C)[C@H](C)CC[C@]3(CCC(=O)[C@H]32)[C@@H](C)[C@@H]1O` was 0.12 mg/L (≈ 0.183 µM); that for `C=C[C@]1(C)C[C@@H](OC(=O)Cn2cc(-c3cncc(NC(=O)c4c[nH]c(=O)cn4)c3)nn2)[C@]2(C)[C@H](C)CC[C@]3(CCC(=O)[C@H]32)[C@@H](C)[C@@H]1O` was 1 mg/L (≈ 1.55 µM); that for `C=C[C@]1(C)C[C@@H](OC(=O)Cn2cc(-c3cccc(Oc4ncnc5[nH]cnc45)c3)nn2)[C@]2(C)[C@H](C)CC[C@]3(CCC(=O)[C@H]32)[C@@H](C)[C@@H]1O` was 0.12 mg/L (≈ 0.188 µM).
Turning to `C=C[C@]1(C)C[C@@H](OC(=O)Cn2cc(-c3ccc(NC(=O)c4ccc(OC)cc4)cc3)nn2)[C@]2(C)[C@H](C)CC[C@]3(CCC(=O)[C@H]32)[C@@H](C)[C@@H]1O`, the MIC in data set [4] was 8 mg/L (≈ 12.2 µM).
Still for that read-out and setting: the value for `C=C[C@]1(C)C[C@@H](OC(=O)Cn2cc(-c3ccc(Cn4cnc5c(=O)[nH]c(N)nc54)nc3)nn2)[C@]2(C)[C@H](C)CC[C@]3(CCC(=O)[C@H]32)[C@@H](C)[C@@H]1O` was 8 mg/L (≈ 11.9 µM); that for `C=C[C@]1(C)C[C@@H](OC(=O)Cn2cc(-c3ccc(Cn4ccc(=O)[nH]c4=O)cc3)nn2)[C@]2(C)[C@H](C)CC[C@]3(CCC(=O)[C@H]32)[C@@H](C)[C@@H]1O` was 0.12 mg/L (≈ 0.191 µM); that for `C=C[C@]1(C)C[C@@H](OC(=O)Cn2cc(-c3ccc(Cn4cnc(CO)c4)nc3)nn2)[C@]2(C)[C@H](C)CC[C@]3(CCC(=O)[C@H]32)[C@@H](C)[C@@H]1O` was 2 mg/L (≈ 3.24 µM).
On the same count and under the same terms, the value for `C=C[C@]1(C)C[C@@H](OC(=O)Cn2cc(-c3ccnc(NC(=O)c4cnc(OC)cn4)c3)nn2)[C@]2(C)[C@H](C)CC[C@]3(CCC(=O)[C@H]32)[C@@H](C)[C@@H]1O` was 0.25 mg/L (≈ 0.38 µM).
The same measure, in the same setting: the value for `C=C[C@]1(C)C[C@@H](OC(=O)Cn2cc(-c3ccc(Cn4cc(C)c(=O)[nH]c4=O)nc3)nn2)[C@]2(C)[C@H](C)CC[C@]3(CCC(=O)[C@H]32)[C@@H](C)[C@@H]1O` was 0.12 mg/L (≈ 0.186 µM).
For the molecule `C=C[C@]1(C)C[C@@H](OC(=O)Cn2cc(-c3ccc(Cn4cnc5c(=O)[nH]cnc54)cc3)nn2)[C@]2(C)[C@H](C)CC[C@]3(CCC(=O)[C@H]32)[C@@H](C)[C@@H]1O`, in data set [4], the MIC was 0.06 mg/L (≈ 0.0918 µM).
Same read-out and setting: then `C=C[C@]1(C)C[C@@H](OC(=O)Cn2cc(-c3cccc(NC(=O)c4ccccc4)c3)nn2)[C@]2(C)[C@H](C)CC[C@]3(CCC(=O)[C@H]32)[C@@H](C)[C@@H]1O`, with 0.25 mg/L (≈ 0.4 µM).
The same measure, in the same setting: then `C=C[C@]1(C)C[C@@H](OC(=O)Cn2cc(-c3ccc(Cn4cnc5c(=O)[nH]c(N)nc54)cc3)nn2)[C@]2(C)[C@H](C)CC[C@]3(CCC(=O)[C@H]32)[C@@H](C)[C@@H]1O`, with 2 mg/L (≈ 2.99 µM); and `C=C[C@]1(C)C[C@@H](OC(=O)Cn2cc(-c3ccc(CNc4cc(N)ncn4)nc3)nn2)[C@]2(C)[C@H](C)CC[C@]3(CCC(=O)[C@H]32)[C@@H](C)[C@@H]1O`, with 0.06 mg/L (≈ 0.0954 µM).
The same measure, in the same setting: the value for `C=C[C@]1(C)C[C@@H](OC(=O)Cn2cc(-c3ccc(Cn4ccnc4N)cc3)nn2)[C@]2(C)[C@H](C)CC[C@]3(CCC(=O)[C@H]32)[C@@H](C)[C@@H]1O` was 0.5 mg/L (≈ 0.832 µM); that for `C=C[C@]1(C)C[C@@H](OC(=O)Cn2cc(-c3cncc(C(=O)Nc4ccccn4)c3)nn2)[C@]2(C)[C@H](C)CC[C@]3(CCC(=O)[C@H]32)[C@@H](C)[C@@H]1O` was 0.06 mg/L (≈ 0.0957 µM).
`C=C[C@]1(C)C[C@@H](OC(=O)Cn2cc(-c3ccc(Cn4ccnc4)cc3)nn2)[C@]2(C)[C@H](C)CC[C@]3(CCC(=O)[C@H]32)[C@@H](C)[C@@H]1O`: in data set [4], the MIC was 0.25 mg/L (≈ 0.427 µM).
`C=C[C@]1(C)C[C@@H](OC(=O)Cn2cc(-c3cncc(C(=O)Nc4ccc(N)cc4)c3)nn2)[C@]2(C)[C@H](C)CC[C@]3(CCC(=O)[C@H]32)[C@@H](C)[C@@H]1O`: the MIC in data set [4] worked out at 0.12 mg/L (≈ 0.187 µM).
On the same count and under the same terms, the value for `C=C[C@]1(C)C[C@@H](OC(=O)Cn2cc(-c3ccc(C(O)c4ccc5c(N)ncnn45)cc3)nn2)[C@]2(C)[C@H](C)CC[C@]3(CCC(=O)[C@H]32)[C@@H](C)[C@@H]1O` (stereo not given in full) was 0.06 mg/L (≈ 0.0898 µM).
